The compounds below were run on Human RSV-A (“Long” strain) (assay: RSV-A assay: inhibition of cytopathic effect in Hep-2 cells, ATPlite readout). Settings: Hep-2 cells, MOI 0.1, 5-day incubation, ATPlite; read-out: Human RSV-A (“Long” strain) EC50.
Assay type: cell-based, Human respiratory syncytial virus (HRSV)
Description: Hep-2 cells, (originally derived from tumors grown in irradiated-cortisonised weanling rats that had been injected with epidermoid carcinoma tissue from a person's larynx, but later found to be indistinguishable from HeLa cells by PCR DNA analysis), were used for the culturing of genotype A, “Long” strain RSV. Flasks were inoculated with RSV and viral stocks were collected once cytopathic effect (CPE) was greater than 90%. Viral stocks in 25% sucrose media were snap frozen using liquid nitrogen to increase viral stability. Viral stock titers were quantified by tissue culture infectious dose 50% (TCID50) using 8,000 cells per well and 3-fold viral dilutions across a 96-well plate, cultured for 4 days. Viral stock titers were also quantified by a plaque forming unit assay, as described elsewhere.
Following extensive parameter testing, the final assay is run as follows: Hep-2 cells are seeded into the inner 60 wells of a 96-well plate at 8,000 cells per well in a volume of 50 μL using Growth Media (DMEM without phenol red, 1% L-Glut, 1% Penn/Strep, 1% nonessential amino acids, 10% heat-inactivated FBS). 2-fold serial dilutions of control and test compounds are added to the wells in duplicate in a total volume of 25 μL. Viral stock is then added to the wells at a multiplicity of infection (MOI) of 0.1 in a volume of 25 μL, bringing the total volume of each well to 100 μL. The MOI is calculated using the PFU/mL, or TCID50 if unavailable. Each 96-well plate has a control column of 6 wells with cells and virus but no compound (negative control, max CPE), a column with cells but no compound or virus (positive control, minimum CPE), and a column with no cells or virus or compound (background plate/reagent control). The control wells with cells but no virus are given an additional 25 uL of growth media containing an equal quantity of sucrose as those wells receiving the viral stock in order to keep consistent in media and volume conditions. The outer wells of the plate are filled with 125 μL of moat media (DMEM, 1% Penn/Strep) to act as a thermal and evaporative moat around the test wells. Following a 5-day incubation period, the plates are read using ATPlite (50 uL added per well), which quantifies the amount of ATP (a measure of cell health) present in each well. Assay plates are read using the Envision luminometer. In parallel, cytotoxicity is examined on an additional 96-well plate treated in an identical manner, but substituting the 25 μL of viral stock for 25 μL of growth media. […] EC50 ranges are as follows: A<0.4 μM; B 0.4-0.8 μM; C>0.8 μM and CC50 ranges are as follows: A>50 μM; B 10-50 μM; C<10 μM.

Question: Which EC50 does the source give for `O=C1Nc2ccccc2C(c2ccccc2)=N[C@@H]1Nc1nnc(-c2cn(CC(F)(F)F)nc2N2CCOCC2)o1` [Example 488] here?
Answer: < 400 nM

Question: With `COC[C@H]1C[C@@H]1c1sc(C(F)(F)F)nc1-c1nnc(N[C@H]2N=C(c3ccccc3)c3ccccc3NC2=O)o1` [Example 395] as the compound, how does the EC50 read?
Answer: > 800 nM

Same assay, conditions: human respiratory syncytial virus, HEp-2, 120 h, read-out: Human RSV-A (“Long” strain) EC50

Question: For `COC1CCN(c2ncccc2-c2nnc(NC3N=C(c4ccccc4)c4ccccc4NC3=O)o2)CC1` (stereo not drawn) [Example 254], which EC50 is on record?
Answer: > 800 nM

Question: How did the EC50 turn out when `O=C1Nc2ccccc2C(c2ccccc2)=N[C@@H]1Nc1nnc(-c2cnc(C(F)(F)F)nc2N2CCOCC2)o1` [Example 162] was run?
Answer: < 400 nM

Question: How did the EC50 turn out when `C[C@@H]1CN(c2ccc(-c3nnc(N[C@H]4N=C(c5ccccc5)c5ccccc5NC4=O)o3)c(Cl)c2)C[C@H](C)O1` [Example 243] was run?
Answer: > 800 nM

Question: How did the EC50 turn out when `O=C1Nc2ccccc2C(c2ccccc2)=N[C@@H]1Nc1nnc(-c2cnn(-c3ccccc3)c2)o1` [Example 350] was run?
Answer: 400 to 800 nM

Question: Which EC50 does the source give for `O=C1Nc2ccccc2C(c2ccccc2)=NC1Nc1nnc(-c2ccc(F)cc2)[nH]1` (stereo not drawn) [Example 363] here?
Answer: > 800 nM

Question: How did the EC50 turn out when `CN(C)CCOc1ccccc1-c1nnc(NC2N=C(c3ccccc3)c3ccccc3NC2=O)o1` (stereo not drawn) [Example 234] was run?
Answer: > 800 nM

Question: With `O=C1Nc2ccccc2C(c2ccccc2)=N[C@@H]1Nc1nnc(-c2nc(C(F)(F)F)sc2C2=CCOCC2)o1` [Example 453] as the compound, how does the EC50 read?
Answer: < 400 nM

Question: `COc1ccn2ncc(-c3nnc(N[C@H]4N=C(c5ccccc5)c5ccccc5NC4=O)o3)c2c1` [Example 410] was tested. Which EC50 did it give?
Answer: > 800 nM

Question: With `O=C1Nc2ccccc2C(c2ccccc2)=N[C@@H]1Nc1nnc(-c2ncc(C(F)(F)F)cc2N2CCOC(C(F)(F)F)C2)o1` (mixture of isomers) [Example 467] as the compound, how does the EC50 read?
Answer: < 400 nM

Question: How did the EC50 turn out when `O=C1Nc2ccccc2C(c2ccccc2)=N[C@@H]1Nc1nnc(-c2ccc(C(F)(F)F)nc2N2C3CCC2COC3)o1` [Example 275] was run?
Answer: > 800 nM

Question: Which EC50 does the source give for `O=C1Nc2ccccc2C(c2ccccc2)=NC1Nc1nnc(C2CCCC2)o1` (stereo not drawn) [Example 197] here?
Answer: > 800 nM

Question: How did the EC50 turn out when `Cc1nc(-c2nnc(NC3N=C(c4ccccc4)c4ccccc4NC3=O)o2)ccc1C#N` (stereo not drawn) [Example 200] was run?
Answer: 400 to 800 nM

Question: Which EC50 does the source give for `O=C1Nc2ccccc2C(c2ccccc2)=NC1Nc1nnc(-c2ccc(C(F)(F)F)nc2N2CCOCC2)o1` (stereo not drawn) [Example 130] here?
Answer: 400 to 800 nM

Question: `O=C1Nc2ccccc2C(c2ccccc2)=N[C@@H]1Nc1nnc(-c2ncc(C3CC3)cc2N2CC3CCC(C2)O3)o1` [Example 321] was tested. Which EC50 did it give?
Answer: < 400 nM

Question: How did the EC50 turn out when `N#CC1CCN(c2ncccc2-c2nnc(NC3N=C(c4ccccc4)c4ccccc4NC3=O)o2)CC1` (stereo not drawn) [Example 260] was run?
Answer: > 800 nM

Question: With `O=C1Nc2ccccc2C(c2ccccc2)=NC1Nc1nnc(-c2cnccc2N2CCCCC2)o1` (stereo not drawn) [Example 134] as the compound, how does the EC50 read?
Answer: > 800 nM

Question: For `COCCn1c(-c2nnc(N[C@H]3N=C(c4ccccc4)c4ccccc4NC3=O)o2)nc2ccccc21` [Example 298], which EC50 is on record?
Answer: > 800 nM

Question: With `O=C1Nc2ccccc2C(c2ccccc2)=N[C@@H]1Nc1nnc(-c2ccc(N3C4CCC3COC4)cc2Cl)o1` [Example 244] as the compound, how does the EC50 read?
Answer: > 800 nM

Question: Which EC50 does the source give for `O=C1Nc2ccccc2C(c2ccccc2)=NC1Nc1nnc(-c2ccc(N3CCOCC3)c(F)c2)o1` (stereo not drawn) [Example 112] here?
Answer: > 800 nM

Question: With `COCc1ccn2ncc(-c3nnc(N[C@H]4N=C(c5ccccc5)c5ccccc5NC4=O)o3)c2c1` [Example 449] as the compound, how does the EC50 read?
Answer: > 800 nM

Question: Which EC50 does the source give for `O=C1Nc2ccccc2C(c2ccccc2)=NC1Nc1nnc(C2CC(F)(F)C2)o1` (stereo not drawn) [Example 214] here?
Answer: > 800 nM

Question: `Cn1nnc(-c2ccc(-c3nnc(NC4N=C(c5ccccc5)c5ccccc5NC4=O)o3)cc2)n1` (stereo not drawn) [Example 186] was tested. Which EC50 did it give?
Answer: > 800 nM

Question: With `O=C1Nc2ccccc2C(c2ccccc2)=N[C@@H]1Nc1nnc(-c2cnc(N3CCOCC3)cn2)o1` [Example 161] as the compound, how does the EC50 read?
Answer: > 800 nM

Question: Which EC50 does the source give for `C[C@@H]1CN(c2ncccc2-c2nnc(NC3N=C(c4ccccc4)c4ccccc4NC3=O)o2)CCO1` (stereo partly drawn) [Example 262] here?
Answer: > 800 nM

Question: `O=C1Nc2ccccc2C(c2ccccc2)=N[C@@H]1Nc1nnc(-c2cc(C3CC3)sc2N2CCOCC2)o1` [Example 384] was tested. Which EC50 did it give?
Answer: < 400 nM

Question: With `O=C1Nc2ccccc2C(c2ccccc2)=N[C@@H]1Nc1nnc(-c2cnc(C3CC3)nc2N2CCOCC2)o1` [Example 167] as the compound, how does the EC50 read?
Answer: < 400 nM

Question: Which EC50 does the source give for `O=C1Nc2ccccc2C(c2ccccc2)=NC1Nc1nnc(-c2cccnc2N2C[C@@H]3C[C@H]2CO3)o1` (stereo partly drawn) [Example 248] here?
Answer: > 800 nM

Question: With `O=C1Nc2ccccc2C(c2ccccc2)=NC1Nc1nnc(-c2ccccc2N2CCS(=O)(=O)CC2)o1` (stereo not drawn) [Example 240] as the compound, how does the EC50 read?
Answer: > 800 nM

Question: Which EC50 does the source give for `O=C1Nc2ccccc2C(c2ccccc2)=N[C@@H]1Nc1nnc(-c2ncc3ccccc3c2N2CCOCC2)o1` [Example 316] here?
Answer: > 800 nM

Question: `CN1CCN(c2cc(C(F)(F)F)cnc2-c2nnc(N[C@H]3N=C(c4ccccc4)c4ccccc4NC3=O)o2)CC1=O` [Example 296] was tested. Which EC50 did it give?
Answer: > 800 nM

Question: With `CN1C(=O)C(Nc2nnc(-c3ccc(F)cc3)o2)N=C(c2ccccc2)c2ccccc21` (stereo not drawn) [Example 201] as the compound, how does the EC50 read?
Answer: > 800 nM

Question: For `CO[C@@H]1COC[C@H]1Nc1cc(C(F)(F)F)cnc1-c1nnc(N[C@H]2N=C(c3ccccc3)c3ccccc3NC2=O)o1` [Example 436], which EC50 is on record?
Answer: < 400 nM

Question: Which EC50 does the source give for `O=C1Nc2ccccc2C(c2ccccc2)=N[C@@H]1Nc1nnc(-c2nc3ccccc3nc2N2CCOCC2)o1` [Example 433] here?
Answer: < 400 nM

Question: How did the EC50 turn out when `O=C1Nc2ccccc2C(c2ccccc2)=NC1Nc1ncc(-c2ccccc2)s1` (stereo not drawn) [Example 85] was run?
Answer: > 800 nM

Question: With `CC1(c2nc(-c3nnc(N[C@H]4N=C(c5ccccc5)c5ccccc5NC4=O)o3)c(N3CCOCC3)s2)CCC1` [Example 478] as the compound, how does the EC50 read?
Answer: < 400 nM

Question: `N#CCNc1cc(C(F)(F)F)cnc1-c1nnc(N[C@H]2N=C(c3ccccc3)c3ccccc3NC2=O)o1` [Example 331] was tested. Which EC50 did it give?
Answer: > 800 nM

Question: Which EC50 does the source give for `O=C1Nc2ccccc2C(c2ccccc2)=N[C@@H]1Nc1nnc(-c2ncc(C(F)(F)F)cc2NCc2ccco2)o1` [Example 421] here?
Answer: > 800 nM

Question: With `COCCNc1ccc(-c2nnc(NC3N=C(c4ccccc4)c4ccccc4NC3=O)o2)cc1` (stereo not drawn) [Example 117] as the compound, how does the EC50 read?
Answer: > 800 nM

Question: With `COCCn1cc(-c2nnc(N[C@H]3N=C(c4ccccc4)c4ccccc4NC3=O)o2)c(N2CCOCC2)n1` [Example 402] as the compound, how does the EC50 read?
Answer: < 400 nM

Question: How did the EC50 turn out when `O=C1Nc2ccccc2C(c2ccccc2)=N[C@@H]1Nc1nnc(-c2ncc(C3=CCCCC3)cc2N2CCOCC2)o1` [Example 312] was run?
Answer: 400 to 800 nM

Question: Which EC50 does the source give for `CS(=O)(=O)c1ccc(-c2nnc(NC3N=C(c4ccccc4)c4ccccc4NC3=O)o2)c(N2CCOCC2)c1` (stereo not drawn) [Example 121] here?
Answer: > 800 nM

Question: How did the EC50 turn out when `CC(C)(O)c1nc(-c2nnc(N[C@H]3N=C(c4ccccc4)c4ccccc4NC3=O)o2)c(N2CCOCC2)s1` [Example 437] was run?
Answer: < 400 nM

Question: `O=C1Nc2ccccc2C(c2ccccc2)=N[C@@H]1Nc1nnc(-c2ncc(C(F)(F)F)cc2-c2ccncc2)o1` [Example 282] was tested. Which EC50 did it give?
Answer: > 800 nM

Question: How did the EC50 turn out when `COC[C@H]1CCCN1c1sc(C(F)(F)F)nc1-c1nnc(N[C@H]2N=C(c3ccccc3)c3ccccc3NC2=O)o1` [Example 456] was run?
Answer: > 800 nM

Question: For `O=C1Nc2ccccc2C(c2ccccc2)=NC1Nc1nnc(-c2cccnc2N2C[C@H]3C[C@@H]2CO3)o1` (stereo partly drawn) [Example 264], which EC50 is on record?
Answer: > 800 nM

Question: With `O=C1Nc2ccccc2C(c2ccccc2)=N[C@@H]1Nc1nnc(-c2sc3ncccc3c2N2CCOCC2)o1` [Example 180] as the compound, how does the EC50 read?
Answer: < 400 nM

Question: How did the EC50 turn out when `COCC1(Nc2cc(C(F)(F)F)cnc2-c2nnc(N[C@H]3N=C(c4ccccc4)c4ccccc4NC3=O)o2)CC1` [Example 415] was run?
Answer: > 800 nM

Question: With `C#Cc1nc(-c2nnc(N[C@H]3N=C(c4ccccc4)c4ccccc4NC3=O)o2)c(N2CCOCC2)s1` [Example 406] as the compound, how does the EC50 read?
Answer: < 400 nM

Question: For `N#CC1CN(c2ncccc2-c2nnc(NC3N=C(c4ccccc4)c4ccccc4NC3=O)o2)C1` (stereo not drawn) [Example 274], which EC50 is on record?
Answer: > 800 nM
